In test [1] the target is T1, GBA (Homo sapiens, UniProt P04062).
T1 construct: HEK293T cells that contain endogenous GBA; endogenous in cells; host or cells: HEK293T (ATCC CRL-3216) overexpressing GBA2 and GBA3
T1 sequence (P04062 40-536): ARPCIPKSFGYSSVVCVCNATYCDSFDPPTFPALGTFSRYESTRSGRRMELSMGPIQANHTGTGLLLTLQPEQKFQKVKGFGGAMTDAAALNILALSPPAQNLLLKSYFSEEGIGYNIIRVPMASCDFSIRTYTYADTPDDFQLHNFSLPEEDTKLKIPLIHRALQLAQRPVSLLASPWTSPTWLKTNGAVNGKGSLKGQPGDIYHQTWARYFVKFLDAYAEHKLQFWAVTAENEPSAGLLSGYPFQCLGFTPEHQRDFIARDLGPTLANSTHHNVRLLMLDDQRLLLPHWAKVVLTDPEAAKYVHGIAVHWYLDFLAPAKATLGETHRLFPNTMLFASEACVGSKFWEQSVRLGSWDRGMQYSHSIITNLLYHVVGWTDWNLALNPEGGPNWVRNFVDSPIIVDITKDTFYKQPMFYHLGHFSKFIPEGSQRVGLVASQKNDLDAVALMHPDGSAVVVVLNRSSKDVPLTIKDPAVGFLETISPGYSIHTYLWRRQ
As to the kind of experiment: ABP labeling of β-D-glucosidases in HEK293T cell lysate, GBA. The format is biochemical. The settings on record: 30 min, pH 6.0. As to the method:
We next investigated, by ABPP, the GBA/GBA2/GBA3 activity and selectivity of β‐D‐xylo‐cyclophellitol aziridine ABPs 6 and 8 in comparison to those of GBA‐specific ABP 9 [31] or ABP 10.
Figure 4 (A) ABP labeling of β‐D‐glucosidases. A lysate of HEK293T cells expressing human GBA, GBA2 and GBA3 was incubated with indicated ABPs (6, 9 or 10) for 30 min at pH 6.0. Fluorescently labeled proteins were visualized after SDS‐PAGE. (B) Labeling with ABP 6 of wild type or mutant GBA2 (E527G nucleophile mutation and D667G acid/base mutation) expressed in HEK293T cells.
ABP labeling procedure: Glycosidases were labeled with excess fluorescent ABPs at optimum conditions. […] After ABP incubation, proteins were denatured by boiling the samples with 5× Laemmli buffer (50 % (v/v) 1 M Tris‐HCl, pH 6.8, 50 % (v/v) 100 % glycerol, 10 % (w/v) DTT, 10 % (w/v) SDS, 0.01 % (w/v) bromophenol blue) for 5 min at 98 °C, and separated by electrophoresis on 10 % (w/v) SDS‐PAGE gels running continuously at 90 V. Wet slab‐gels were scanned on fluorescence using the Typhoon FLA 9500 (GE Healthcare) at λEX 473 nm and λEM≥510 nm for green fluorescent ABP 8; and at λEX 635 nm and λEM≥665 nm for ABP 6, 9 and 10. ABP‐emitted fluorescence was quantified using ImageQuant software (GE Healthcare, Chicago, IL, USA) and curve‐fitted using Prism 8.0 (GraphPad Software). […]

Test [2] has as its target T2, rhGBA (recombinant human GBA, Imiglucerase) (Homo sapiens, UniProt P04062, R534H).
T2 construct: purchased Sanofi Genzyme (Cambridge, MA, USA)
T2 sequence (P04062 40-536 R534H): T1 sequence (P04062 40-536) with R495H
In words: Fluorogenic substrate (4-MU-β-D-glucoside) enzymatic assay, rhGBA. The note with it: for IC50: enzymatic assay performed for 3 h, n=3, read-out: In vitro apparent IC50 rhGBA, 3 h. The format is biochemical.

Molecules are shown by their SMILES. Residue numbers refer to the chain shown, from its start.

The values that follow come from article PMC8596838, “Xylose‐Configured Cyclophellitols as Selective Inhibitors for Glucocerebrosidase” (Chembiochem, 2021).

One may read the IC50 as the concentration that gives 50% inhibition.

Regarding `CN1/C(=C/C=C/C=C/C2=[N+](CCCCCC(=O)NCc3cn(C[C@@H]4[C@@H](O)[C@H](O)[C@@H](O)[C@@H]5O[C@H]45)nn3)c3ccccc3C2(C)C)C(C)(C)c2ccccc21` [ABP 9, reference compound], the “selectivity of ABP labeling towards GBA over GBA2 and GBA3” value in test [1] was “most selective ABP towards GBA over GBA2 and GBA3”. With `O[C@@H]1[C@@H](O)[C@H](O)C[C@H]2O[C@@H]12` [compound 1, xylo‐cyclophellitol], in test [2], the IC50 stood at 450 ± 20 nM. Take `O[C@@H]1[C@@H](O)[C@H](O)C[C@H]2N[C@@H]12` [compound 2, β‐D‐xylo‐Cyclophellitol aziridine]: the IC50 in test [2] was found to be 240 ± 30 nM. In test [2] (in vitro 3 h), the “increase in inhibitory activity towards GBA of aziridines relative to epoxide analogues” value was “less than two‐fold increase”.
